Data set [1] has as its system mesenteric mast cells. The data set is described as follows: Test for the degranulation of mesenteric mast cells in rats. In kind it is cell-based, rat. Particulars: 10^-4 g/ml; induced by 5×10^-6 g/ml DNP-As. Here is the method:
Rats were passively sensitized at their abdominal cavity by anti-DNP-As rat serum, 24 hours after which the mesenterium of the rats was enucleated. Then, 100 mg of the mesenterium were accurately weighed out, immersed in Tyrode's solution and preincubated at 37° C. for 5 minutes. Thereafter, the immersed solution was added to the antiallergic compounds of the formula (I) suspended in saline solution containing 0.5% of tragacanth gum, incubated at 37° C. for 20 minutes and then induced by 5×10^-6 g/ml of DNP-As. After 20 minutes' incubation, the solution was chilled in ice, and the mesenterium so reacted was dyed by the use of formalin (10% formaldehyde content) and an 0.1% tolwdine blue solution containing 0.1% of acetic acid, treated with ethanol and xylene and measured for degranulation by mirror inspection ([…]).

A short description of data set [2]: Acute toxicity test. Particulars: mouse, in vivo; oral, mice, death in 3 weeks. Here is the method: The compounds (of the formula (I)) to be tested were each suspended in a saline solution containing 0.5% of tragacanth gum and then orally administered to 6 ddY strain mice in a group, each mouse weighing 20-25 g. LD50 values were calculated from the death of mice in 3 weeks following the administration.

Data set [3] relates to lung fragment of guinea pigs. The experiment in a line: Histamine release on lung fragment of guinea pigs. In kind it is cell-based, guinea pig. The conditions noted are these: sodium salt, induced by ovalbumin 10^-6 g/ml. Here is the method: The lungs of guinea pigs sensitized actively by ovalbumin were thoroughly irrigated by Tyrode's solution and then cut to obtain about 1-2 mm thick pieces. Two hundred (200) mg of the thus obtained fragments were accurately weighed out, immersed in Tyrode's solution and preincubated at 37° C. for 5 minutes. Then, the compounds of the formula (I) were each suspended in saline solution containing 0.5% of tragacanth gum, incubated at 37° C. for 20 minutes and induced by 10^-6 g/ml of ovalbumin.
Following 20 minutes' incubation, the siolutin was chilled in ice and then measured for the amount of released histamine in the medium and remaining in the tissue by the use of fluorometric assay in accordance with the Shore et al's method (J. Pharmacol. exp. Ther. 127, 182, 1959).

Data set [4] deals with homologous passive cutaneous anaphylaxis. The data set is described as follows: Homologous passive cutaneous anaphylaxis (Homolog. PCA) in rats. The class given is in vivo, rat (male Wistar strain). The conditions noted are these: 200 mg/kg oral, 2 hours prior to antigen; for inhibition at 200 mg/kg: Rattus norvegicus. The text has this:
In accordance with the experimental method of Tada, T et al (J. Immunol., 106, 1002, 1971), a homologous passive cutaneous anaphylaxis (Homolog. PCA) reaction test was made on male Wistar strain rats, each weighing 160-170 g. In this test, DNP-As (Dinitrophenol coupled Ascaris suum extract) was obtained by reacting dinitrophenol (DNP) with protein extracted from Ascaris suum and was used as the antigen. Anti-DNP-As rats serum was prepaed using said antigen and was used as the antibody. […] After the lapse of 48 hours, the test animals were each given 1.0 ml of the antigen solution (2.0 mg as the amount of protein) containing 0.25% Evans blue by intravenous injection thereinto. Thirty (30) minutes later, they were sacrificed by exsanguination and their skins were peeled to measure the area of PCA blueing lesion. The amounts of dye extravasated were each measured in accordance with the method proposed by Harada, M. et al (J. Pharm. Pharmacol., 23, 218, 1971).
The compounds of the formula (I) were orally administered at a dose of 200 mg/kg to the rats two hours prior to the administration of the antigen thereto.

Data set [5] deals with reversed cutaneous anaphylaxis. The experiment in a line: Reversed cutaneous anaphylaxis test on rats. In kind it is in vivo, rat (male Wistar strain). Particulars: 100 mg/kg oral, one hour prior to anti-rat rabbit serum; for inhibition at 100 mg/kg: 1 h, read-out: Inhibition rate. Here is the method:
In accordance with Yamazaki et al's method (Folia Pharmacol. Jap. 60, .sctn.65, 1964) obtained by improving Ungar et al's method (Arch. intern. Pharmacodyn. 123, 71, 1959), male Wistar strain rats, each weighing about 100 g, were tested as follows.
First of all, anti-rat rabbit serum was dissolved in such an amount in an 0.5% solution of Evans blue as to obtain a 15% solution of the serum. The thus obtained serum solution was injected intradermally in an 0.05 ml dose into each of 2 sites on one side of the back of each of the rats, while an 0.5% solution of Evans blue in saline solution was also injected similarly in an 0.05 ml dose into each of 2 sites on one side of the back thereof. Two hours later, the test animals were sacrificed and their skins were peeled. The skins so peeled were punched as the indication of the Evans blue spot to separate the edema (swollen) portions thereof which were then measured for their weights.
The strength of intumescence was calculated from the following formula: [formula] wherein Wi is the weight of the inflammatory portion and Ws is the weight of the control portion.
The antiallergic compounds of the formula (I) according to this invention were orally administered at a dose of 100 mg/kg to the rats one hour prior to the injection of the anti-rat rabbit serum.

The mark [6] stands for this setting: amount of dye, read-out: Inhibition rate (amount of dye extravasated).
The mark [7] stands for this setting: area, read-out: Inhibition rate (area of dye extravasated).

We go through two compounds from patent US4410546A, “Antiallergic compositions” (Hisamitsu Pharmaceutical Co., Inc., priority 1981, dated 1983).

Read-outs that look alike come from different tables or passages of the source.

Consider `CCCC[C@H]1CC[C@H](C(=O)O)CC1` [Compound 1, trans-4-n-butylcyclohexanecarboxylic acid], for which the Degranulation rate in data set [1] was 71.45 ± 5.85%. The LD50 at 504 h in data set [2] was above 2000 mg/kg. In addition, the “Inhibition rate (histamine release)” value in data set [3] (Conc.: 10^-4 g/ml) was 83.9%; in data set [3] (Conc.: 10^-5 g/ml) it was 9.2%. In addition, the “Amount of dye extravasated” value in data set [4] is 5.17 ± 0.32 μg/site. The “Area of dye extravasated” value in data set [4] was 76.87 ± 2.68 mm^2. Besides, the inhibition at 200 mg/kg is 64% in data set [4] (setting [6]) and 22.4% in data set [4] (setting [7]). For the same compound, in data set [5], the Intumescence rate worked out at 29.81 ± 7.17%. Besides, in data set [5], the inhibition at 100 mg/kg amounted to 30%.

In the case of `CCCCC[C@H]1CC[C@H](C(=O)O)CC1` [Compound 2, trans-4-n-pentylcyclohexanecarboxylic acid], the Degranulation rate in data set [1] is on record as 74.96 ± 2.91%. Further, in data set [2], the 50% lethal dose (LD50) at 504 h is above 2000 mg/kg. Also, the “Inhibition rate (histamine release)” value in data set [3] (Conc.: 10^-4 g/ml) came out at 92.2%. Further, in data set [3] (Conc.: 10^-5 g/ml), the “Inhibition rate (histamine release)” value is 83.4%. In data set [4], the “Amount of dye extravasated” value came to 2.49 ± 0.29 μg/site and the “Area of dye extravasated” value is recorded as 67.20 ± 2.57 mm^2. Besides, the inhibition at 200 mg/kg in data set [4] (setting [6]) is 82.7%. Moreover, the inhibition at 200 mg/kg in data set [4] (setting [7]) was 32.2%. In addition, in data set [5], the Intumescence rate is 25.00 ± 2.77% and the inhibition at 100 mg/kg stood at 41.3%.

One may read the LD50 as the dose expected to kill half of the subjects tested. One may read the inhibition as the percentage by which the read-out fell short of the control.
